# Biological target: Serine/threonine-protein kinase B-raf (Homo sapiens, UniProt P15056, V600E)
# Assay: Inhibition of human BRAF V600E mutant using myelin basic protein as substrate measured after 40 mins in presence of [gamma33P-ATP] by scintillation counting method
# Sequence of Serine/threonine-protein kinase B-raf (P15056 2-766 V600E limits assumed): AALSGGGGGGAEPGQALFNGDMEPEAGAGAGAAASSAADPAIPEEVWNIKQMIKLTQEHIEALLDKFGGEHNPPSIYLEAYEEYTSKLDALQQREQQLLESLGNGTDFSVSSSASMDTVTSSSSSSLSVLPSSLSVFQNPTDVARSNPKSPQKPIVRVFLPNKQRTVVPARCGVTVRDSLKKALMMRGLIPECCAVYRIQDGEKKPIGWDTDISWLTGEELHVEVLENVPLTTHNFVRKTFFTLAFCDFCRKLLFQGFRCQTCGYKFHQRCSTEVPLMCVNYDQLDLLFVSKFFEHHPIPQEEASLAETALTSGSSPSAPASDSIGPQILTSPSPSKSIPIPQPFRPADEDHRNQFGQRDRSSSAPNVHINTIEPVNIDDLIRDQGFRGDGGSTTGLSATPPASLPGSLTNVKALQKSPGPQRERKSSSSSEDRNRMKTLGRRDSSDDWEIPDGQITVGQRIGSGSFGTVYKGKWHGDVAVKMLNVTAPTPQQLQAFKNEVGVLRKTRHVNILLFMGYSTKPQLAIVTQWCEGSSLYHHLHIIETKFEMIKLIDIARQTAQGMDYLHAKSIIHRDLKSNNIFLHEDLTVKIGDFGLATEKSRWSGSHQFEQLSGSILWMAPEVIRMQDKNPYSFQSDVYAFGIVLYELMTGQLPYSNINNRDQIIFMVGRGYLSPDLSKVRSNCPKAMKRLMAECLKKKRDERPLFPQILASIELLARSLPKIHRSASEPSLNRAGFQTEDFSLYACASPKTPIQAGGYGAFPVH
row,IC50,Compound
1,7 nM,O=C(Nc1cccc(-n2cc(-c3ccncc3)c(-c3cc(O)cc(Cl)c3)n2)c1)Nc1ccc(Cl)c(C(F)(F)F)c1
2,7410 nM,COc1cc(Cl)cc(-c2nn(-c3cccc(NC(=O)c4cc(C(F)(F)F)cc(C(F)(F)F)c4)c3)cc2-c2ccncc2)c1
3,189 nM,COc1cc(Cl)cc(-c2nn(-c3cccc(NC(=O)Nc4ccc(Cl)c(C(F)(F)F)c4)c3)cc2-c2ccncc2)c1
4,87200 nM,COc1cc(Cl)cc(-c2nn(-c3cccc(NC(=O)c4ccc(Cl)c(Cl)c4)c3)cc2-c2ccncc2)c1
5,212 nM,O=C(Nc1cccc(-n2cc(-c3ccncc3)c(-c3cc(O)cc(Cl)c3)n2)c1)c1cc(C(F)(F)F)cc(C(F)(F)F)c1
6,919 nM,O=C(Nc1ccccc1)Nc1cccc(-n2cc(-c3ccncc3)c(-c3cc(O)cc(Cl)c3)n2)c1
7,14 nM,O=C(Nc1cccc(-n2cc(-c3ccncc3)c(-c3cc(O)cc(Cl)c3)n2)c1)c1ccc(N2CCOCC2)c(C(F)(F)F)c1
8,45 nM,O=C(Nc1cccc(-n2cc(-c3ccncc3)c(-c3cc(O)cc(Cl)c3)n2)c1)Nc1ccc(Cl)c(Cl)c1
9,30 nM,O=C(Nc1cccc(-n2cc(-c3ccncc3)c(-c3cc(O)cc(Cl)c3)n2)c1)Nc1cccc(C(F)(F)F)c1
10,160 nM,COc1cc(Cl)cc(-c2nn(-c3cccc(NC(=O)c4cccc(C(F)(F)F)c4)c3)cc2-c2ccncc2)c1
11,475 nM,COc1cc(Cl)cc(-c2nn(-c3cccc(NC(=O)Nc4cccc(C(F)(F)F)c4)c3)cc2-c2ccncc2)c1
12,2110 nM,O=C(Nc1cccc(-n2cc(-c3ccncc3)c(-c3cc(O)cc(Cl)c3)n2)c1)Nc1cc(C(F)(F)F)cc(C(F)(F)F)c1
13,3690 nM,COc1cc(Cl)cc(-c2nn(-c3cccc(NC(=O)c4ccccc4)c3)cc2-c2ccncc2)c1
14,38 nM,O=C(Nc1cccc(-n2cc(-c3ccncc3)c(-c3cc(O)cc(Cl)c3)n2)c1)c1cccc(C(F)(F)F)c1
15,26 nM,O=C(Nc1cccc(-n2cc(-c3ccncc3)c(-c3cc(O)cc(Cl)c3)n2)c1)c1ccccc1
16,348 nM,COc1cc(Cl)cc(-c2nn(-c3cccc(NC(=O)c4ccc(N5CCOCC5)c(C(F)(F)F)c4)c3)cc2-c2ccncc2)c1
17,47 nM,O=C(Nc1cccc(-n2cc(-c3ccncc3)c(-c3cc(O)cc(Cl)c3)n2)c1)c1ccc(Cl)c(Cl)c1
18,488 nM,COc1cc(Cl)cc(-c2nn(-c3cccc(NC(=O)Nc4ccccc4)c3)cc2-c2ccncc2)c1
19,251 nM,COc1cc(Cl)cc(-c2nn(-c3cccc(NC(=O)Nc4ccc(Cl)c(Cl)c4)c3)cc2-c2ccncc2)c1

# Source: ChEMBL document CHEMBL4411323 (Bioorg Med Chem, 2019)
